The source of these data is patent publication US8791048B2, “Herbicidal compositions comprising 4-amino-3-chloro-5-fluoro-6-(4-chloro-2-fluoro-3-methoxyphenyl) pyridine-2-carboxylic acid or a derivative thereof and clomazone” (Dow Agrosciences LLC, priority 2012, dated 2014).

What all share (assay type): in vivo
Assay [1] relates to DIGSA Digitaria sanguinalis (L.) Scop.; crabgrass, large. Put plainly: Postemergence foliar-applied greenhouse trial, weed control in direct-seeded rice. The text has this:
(§1) Results in Examples I and II are greenhouse trial results.
(§2) Seeds or nutlets of the desired test plant species were planted in a soil matrix prepared by mixing a loam or sandy loam soil (e.g., 28.6 percent silt, 18.8 percent clay, and 52.6 percent sand, with a pH of about 5.8 and an organic matter content of about 1.8 percent) and calcareous grit in an 80 to 20 ratio. The soil matrix was contained in plastic pots with a volume of 1 quart and a surface area of 83.6 square centimeters (cm^2). When required to ensure good germination and healthy plants, a fungicide treatment and/or other chemical or physical treatment was applied. The plants were grown for 8-22 days in a greenhouse with an approximate 14 h photoperiod which was maintained at about 29° C. during the day and 26° C. during the night. Nutrients (Peters Excel® 15-5-15 5-Ca 2-Mg and iron chelate) were applied in the irrigation solution as needed and water was added on a regular basis. Supplemental lighting was provided with overhead metal halide 1000-Watt lamps as necessary. The plants were employed for testing when they reached the first through fourth true leaf stage.
(§3) Treatments consisted of the acid or esters of 4-amino-3-chloro-5-fluoro-6-(4-chloro-2-fluoro-3-methoxy-phenyl)pyridine-2-carboxylic acid (Compound A), each formulated as an SC (suspension concentrate), and various herbicidal components alone and in combination. Forms of compound A were applied on an acid equivalent basis.
(§4) Other herbicidal components were applied on an active ingredient basis and consisted of clomazone formulated as Command® 3ME. Treatment requirements were calculated based upon the rates being tested, the concentration of active ingredient or acid equivalent in the formulation, and a 12 mL application volume at a rate of 187 L/ha.
(§5) For treatments comprised of formulated compounds, measured amounts of compounds were placed individually in 25 mL glass vials and diluted in a volume of 1.25% (v/v) Agri-Dex® crop oil concentrated to obtain 12× stock solutions. […] Application solutions were prepared by adding an appropriate amount of each stock solution (e.g., 1 mL) and diluted to the appropriate final concentrations with the addition of 10 mL of an aqueous mixture of 1.25% (v/v) crop oil concentrate so that the final spray solutions contained 1.25+/−0.05% (v/v) crop oil concentrate.
(§6) All stock solutions and applications solutions were visually inspected for compound compatibility prior to application. Spray solutions were applied to the plant material with an overhead Mandel track sprayer equipped with a 8002E nozzles calibrated to deliver 187 L/ha over an application area of 0.503 m^2 at a spray height of 18 to 20 inches (46 to 50 cm) above average plant canopy height. Control plants were sprayed in the same manner with the solvent blank.
(§7) The treated plants and control plants were placed in a greenhouse as described above and watered by sub-irrigation to prevent wash-off of the test compounds. After approximately 3 weeks, the condition of the test plants as compared with that of the untreated plants was determined visually and scored on a scale of 0 to 100 percent where 0 corresponds to no injury or growth inhibition and 100 corresponds to complete kill.
(§8) Colby's equation was used to determine the herbicidal effects expected from the mixtures (Colby, S. R. 1967. Calculation of the synergistic and antagonistic response of herbicide combinations. Weeds 15:20-22.).
(§9) The following equation was used to calculate the expected activity of mixtures containing two active ingredients, A and B: Expected=A+B−(A×B/100)
(§10) A=observed efficacy of active ingredient A at the same concentration as used in the mixture.
(§11) B=observed efficacy of active ingredient B at the same concentration as used in the mixture.

Assay [2] deals with ECHCO Echinochloa colona (L.) Link; junglerice. The description is as above.
Source text: as §1, §2, §3, §4, §5, §6, §7, §8, §9, §10, §11

Assay [3] has as its system IPOHE Ipomoea hederacea Jacq.; morningglory, ivyleaf. The description is as above.
Source text: as §1, §2, §3, §4, §5, §6, §7, §8, §9, §10, §11

Assay [4] has as its system ECHCG Echinochloa crus-galli (L.) Beauv.; barnyardgrass. The description is as above.
Source text: as §1, §2, §3, §4, §5, §6, §7, §8, §9, §10, §11

The subject of assay [5] is LEFCH Leptochloa chinensis (L.) Nees; sprangletop, Chinese. The description is as above.
Source text: as §1, §2, §3, §4, §5, §6, §7, §8, §9, §10, §11

The test system of assay [6] is CYPDI Cyperus difformis L. sedge, smallflower umbrella. Put plainly: In-water applied greenhouse trial, weed control in transplanted paddy rice. How it is done: as §1
(§12) Weed seeds or nutlets of the desired test plant species were planted in puddled soil (mud) prepared by mixing a shredded, non-sterilized mineral soil (50.5 percent silt, 25.5 percent clay, and 24 percent sand, with a pH of about 7.6 and an organic matter content of about 2.9 percent) and water at a 1:1 volumetric ratio. The prepared mud was dispensed in 365 mL aliquots into 16-ounce (oz.) non-perforated plastic pots with a surface area of 86.59 square centimeters (cm^2) leaving a headspace of 3 centimeters (cm) in each pot. Rice seeds were planted in Sun Gro MetroMix® 306 planting mixture, which typically has a pH of 6.0 to 6.8 and an organic matter content of about 30 percent, in plastic plug trays. Seedlings at the second or third leaf stage of growth were transplanted into 860 mL of mud contained in 32-oz. non-perforated plastic pots with a surface area of 86.59 cm^2 4 days prior to herbicide application. The paddy was created by filling the headspace of the pots with 2.5 to 3 cm of water. When required to ensure good germination and healthy plants, a fungicide treatment and/or other chemical or physical treatment was applied. The plants were grown for 4-22 days in a greenhouse with an approximate 14 h photoperiod which was maintained at about 29° C. during the day and about 26° C. during the night. Nutrients were added as Osmocote® (17:6:10, N:P:K+minor nutrients) at 2 g per 16-oz. pot and 4 g per 32-oz. pot. Water was added on a regular basis to maintain the paddy flood, and supplemental lighting was provided with overhead metal halide 1000-Watt lamps as necessary. The plants were employed for testing when they reached the first through fourth true leaf stage.
(§13) Treatments consisted of the acid or esters of 4-amino-3-chloro-5-fluoro-6-(4-chloro-2-fluoro-3-methoxy-phenyl)pyridine-2-carboxylic acid (compound A) each formulated as an SC (suspension concentrate) and various herbicidal components alone and in combination. Forms of compound A were applied on an acid equivalent basis.
(§14) Other herbicidal components were applied on an active ingredient basis and consisted of clomazone formulated as Command® 3ME.
(§15) Treatment requirements for each compound or herbicidal component were calculated based upon the rates being tested, the concentration of active ingredient or acid equivalent in the formulation, an application volume of 2 mL per component per pot, and an application area of 86.59 cm^2 per pot.
(§16) For formulated compounds, a measured amount was placed in an individual 100 or 200 mL glass vial and was dissolved in a volume of 1.25% (v/v) Agri-Dex® crop oil concentrate to obtain application solutions.
(§17) Applications were made by injecting appropriate amounts of the application solutions with a pipetter, individually and sequentially, into the aqueous layer of the paddy. Control plants were treated in the same manner with the solvent blank. Applications were made so that all treated plant material received the same concentrations of acetone and crop oil concentrate.
(§18) The treated plants and control plants were placed in a greenhouse as described above and water was added as needed to maintain a paddy flood. After approximately 3 weeks the condition of the test plants as compared with that of the untreated plants was determined visually and scored on a scale of 0 to 100 percent where 0 corresponds to no injury or growth inhibition and 100 corresponds to complete kill.
as §8, §9
(§19) A=observed efficacy of active ingredient A at the same concentration as used in the mixture. […]

Assay [7] deals with CYPRO Cyperus rotundus L. nutsedge, purple. The assay is described as above. As to the method: as §1, §12, §13, §14, §15, §16, §17, §18, §8, §9, §19
The test system of assay [8] is SCPMA Bolboschoenus maritimus (L.) Palla clubrush, sea. The assay is described as above. How it is done: as §1, §12, §13, §14, §15, §16, §17, §18, §8, §9, §19
Where [9] appears, read: Compound A Acid 0 gae/ha, Clomazone 112 gai/ha.
The mark [10] stands for this setting: Compound A Acid 0 gae/ha, Clomazone 224 gai/ha.
Where [11] appears, read: Compound A Benzyl Ester 0 gae/ha, Clomazone 56 gai/ha.
[12] abbreviates: Compound A Benzyl Ester 0 gae/ha, Clomazone 112 gai/ha.
Setting [13] is: Compound A Benzyl Ester 0 gae/ha, Clomazone 224 gai/ha.
The mark [14] stands for this setting: Compound A Acid 0 gae/ha, Clomazone 448 gai/ha.
Setting [15] is: Compound A Acid 4.38 gae/ha, Clomazone 0 gai/ha.
The mark [16] stands for this setting: Compound A Acid 8.75 gae/ha, Clomazone 0 gai/ha.
Where [17] appears, read: Compound A Acid 17.5 gae/ha, Clomazone 0 gai/ha.
[18] abbreviates: Compound A Acid 16 gae/ha, Clomazone 0 gai/ha.
[19] abbreviates: Compound A Benzyl Ester 4.38 gae/ha, Clomazone 0 gai/ha.
[20] abbreviates: Compound A Benzyl Ester 17.5 gae/ha, Clomazone 0 gai/ha.
Setting [21] is: Compound A Benzyl Ester 8 gae/ha, Clomazone 0 gai/ha.
[22] abbreviates: Compound A Benzyl Ester 16 gae/ha, Clomazone 0 gai/ha.
The mark [23] stands for this setting: Compound A Benzyl Ester 32 gae/ha, Clomazone 0 gai/ha.

In the case of `CC1(C)CON(Cc2ccccc2Cl)C1=O` [Clomazone, 2-[(2-chlorophenyl)methyl]-4,4-dimethyl-3-isoxazolidinone], the “Visual Weed Control (%) - 19 DAA Obs” value in assay [1] (Compound A Acid 0 gae/ha, Clomazone 56 gai/ha) is 0%; in assay [1] (setting [9]) it was 0%; in assay [1] (setting [10]), 0%; in assay [2] (setting [11]), 10%; in assay [2] (setting [12]) it was 10%; in assay [2] (setting [13]), 10%. For the same compound, the “Visual Weed Control (%) - 19 DAA Obs” value in assay [3] (setting [9]) was 20%; in assay [3] (setting [10]), 20%; in assay [4] (setting [11]) it was 10%; in assay [4] (setting [12]), 10%; in assay [4] (setting [13]) it was 10%; in assay [5] (Table 1, Compound A Acid 0 gae/ha, Clomazone 56 gai/ha), 0%. In addition, the “Visual Weed Control (%) - 19 DAA Obs” value turned out to be 0% in assay [5] (Table 1, Compound A Acid 0 gae/ha, Clomazone 112 gai/ha); 15% in assay [5] (Table 1, Compound A Acid 0 gae/ha, Clomazone 224 gai/ha); 0% in assay [5] (Table 2, Compound A Benzyl Ester 0 gae/ha, Clomazone 56 gai/ha); 0% in assay [5] (Table 2, Compound A Benzyl Ester 0 gae/ha, Clomazone 112 gai/ha); 15% in assay [5] (Table 2, Compound A Benzyl Ester 0 gae/ha, Clomazone 224 gai/ha); 0% in assay [8] (Compound A Benzyl Ester 0 gae/ha, Clomazone 670 gai/ha). Also, the “Visual Weed Control (%) - 21 DAA Obs” value in assay [6] (setting [10]) came out at 20%; in assay [6] (setting [14]) it was 40%; in assay [7] (setting [9]), 0%; in assay [7] (Compound A Benzyl Ester 0 gae/ha, Clomazone 448 gai/ha) it was 0%; in assay [8] (setting [12]), 0%. Moreover, the “Visual Weed Control (%) - 22 DAA Obs” value in assay [8] (setting [14]) stood at 25%.

Consider `COc1c(Cl)ccc(-c2nc(C(=O)O)c(Cl)c(N)c2F)c1F` [Compound A Acid, 4-amino-3-chloro-6-(4-chloro-2-fluoro-3-methoxyphenyl)-5-fluoropyridine-2-carboxylic acid], for which the “Visual Weed Control (%) - 19 DAA Obs” value in assay [1] (setting [15]) is on record as 30%; in assay [3] (setting [15]), 0%; in assay [3] (setting [16]) it was 10%; in assay [5] (setting [17]) it was 55%. Further, the “Visual Weed Control (%) - 21 DAA Obs” value in assay [6] (setting [18]) is on record as 30%; in assay [7] (setting [16]) it was 0%; in assay [7] (setting [17]) it was 30%; in assay [7] (Compound A Acid 35 gae/ha, Clomazone 0 gai/ha) it was 85%. For the same compound, the “Visual Weed Control (%) - 22 DAA Obs” value in assay [8] (setting [18]) amounted to 0%; in assay [8] (Compound A Acid 32 gae/ha, Clomazone 0 gai/ha), 0%; in assay [8] (Compound A Acid 64 gae/ha, Clomazone 0 gai/ha) it was 30%.

On to `COc1c(Cl)ccc(-c2nc(C(=O)OCc3ccccc3)c(Cl)c(N)c2F)c1F` [Compound A Benzyl Ester], for which the “Visual Weed Control (%) - 19 DAA Obs” value in assay [2] (setting [19]) was determined as 65%; in assay [4] (setting [19]), 55%; in assay [5] (setting [20]), 30%; in assay [8] (setting [21]), 0%; in assay [8] (setting [22]) it was 0%; in assay [8] (setting [23]), 0%. The “Visual Weed Control (%) - 21 DAA Obs” value in assay [7] (setting [21]) was 70%; in assay [7] (setting [22]), 95%; in assay [7] (setting [23]), 90%; in assay [8] (setting [19]) it was 0%; in assay [8] (Compound A Benzyl Ester 8.75 gae/ha, Clomazone 0 gai/ha), 0%; in assay [8] (setting [20]), 0%.
